Test results reported in PMC6598645 (Chemical Science, 2019).
*1 amine or outer side, *2 acyl side, *3 side chain or, on linkers, in order; H or OH if unused. Where a SMILES comes first, the peptide text is derived from it. Bridges are numbered along the chain shown (N, C = ends). [ ]: non-standard residue; d: D form. X2 = O=C([C@H](CCNP(=O)(CC[*:3])OCc1ccccc1)N[*:1])[*:2]; Nle = CCCC[C@H](N)C(=O)O

Test system: HeLa cells
Assay: Cellular uptake of CF-labelled peptides, confocal imaging
Assay type: cell-based
Details: 10 μM mixture of 10% fluorescein (CF) labelled and 90% non-labelled peptides, three hours, 37°C, confocal microscopy

Compound | cellular uptake
CCCC[C@H](NC(=O)[C@H](CCCNC(=N)N)NC(=O)[C@H](CCC(N)=O)NC(=O)[C@@H](NC(=O)[C@H]1CSCCP(=O)(OCc2ccccc2)NCC[C@H](NC(=O)[C@H](CC(C)C)NC(=O)[C@H](CO)NC(=O)[C@H](CCCNC(=N)N)NC(=O)[C@H](CCC(=O)O)NC(=O)[C@H](CCCNC(=N)N)NC(=O)[C@H](Cc2c[nH]cn2)NC(=O)[C@H](CCC(=O)O)NC(=O)[C@H](CC(C)C)NC(=O)[C@H](CCC(N)=O)NC(=O)[C@H](CCC(=O)O)NC(=O)[C@H](CCC(N)=O)NC(=O)[C@H](CO)NC(=O)[C@H](CC(C)C)NC(C)=O)C(=O)N[C@@H]([C@@H](C)O)C(=O)N[C@@H](CC(C)C)C(=O)N[C@@H](CCCNC(=N)N)C(=O)N1)[C@@H](C)CC)C(=O)N[C@@H](CC(C)C)C(=O)N[C@@H](Cc1ccccc1)C(N)=O (stereo partly drawn) [compound 13, cyclic-benzylphosphonamidate-BCL9-Nle-Aha-DCys peptide] (Ac-LSQEQLEHRERSL[X2]TLR[dC]IQR[Nle]LF-NH2; thioether 14-18; N-terminus and C-terminus assumed) | increased cellular uptake
AcLSQEQLEHRERSL TLR IQRNMLFNH2 (sidechain bridge or staple) [compound 7, RCM-BCL9-Nle peptide] | taken up readily
